Assay results: patent US7476729B2, “Dbait and uses thereof” (Institut Curie, priority 2003, dated 2009)

What was measured:
Hela cells = test: Clonogenic survival assay of Hela cells after 4×0.5 Gy irradiation; assay type: cell-based, human; conditions: 4×0.5 Gy spaced 2 hours, Dbait transfected with Superfect (83 nM or 2 μg)
Protocol: Exponentially growing cells in six-well plates were harvested and incubated with […] of complete DMEM containing a mixture of Dbait molecules and Superfect reagent (Qiagen, Courtaboeuf, France) in a ratio of 10 μl Superfect per μg DNA. After 5 h at 37° C. under standard conditions, the cells were washed with PBS and complete DMEM was added. Where indicated, cells were exposed to irradiation either in one session (10 Gy) 5 h after the beginning of transfection or in four sessions of 0.5 Gy administered with a ^137Cs unit (1 Gy/min) 3, 4, 5 and 6 h after the beginning of transfection and allowed to grow for two weeks. When plasmid integration was measured, 2 μg of plasmid was added to Dbait transfection and puromycin (1.7 μg/ml) was added to the growth medium 48 h after transfection. Plasmid transfection efficiency was estimated by analyzing 10,000 cells for GFP expression on a FACScan flow cytometer (FACSalibur, Beckton-Dickinson, USA).
Upon 8 hours transfection of Dbait molecules in Hela cells and four irradiation with 0.5 Gy fractionated irradiation spaced 2 hours (4×0.5 Gy), performed with γ-rays from a ^137Cs source, a significant reduction of clonogenic survival was observed as compared to untransfected cells. The results are given on FIG. 2.1 wherein Panel A gives the dose-dependence of normalized survival clone number in the presence of Dbait32 (SEQ ID NO: 1) and Dbait32H (SEQ ID NO: 1), and Panel B, the normalized survival clone number in the presence of different Dbait molecules at 83 nM (concentration in culture medium). Cell culture was in MEM supplemented with 10% serum. Superfect (Qiagene) was used as transfection agent according to the manufacturer's instruction.
Clonogenic survival was estimated as the number of treated cells forming colonies on the number of untreated cells.

GMA32 cells = test: Clonogenicity (clonal survival) assay in GMA32 cells with irradiation or mitotic inhibitors; assay type: cell-based, Chinese hamster
Protocol: The GMA32 Chinese hamster fibroblast cells permissive of DNA breaks were maintained in MEM medium (Gibco) supplemented with 1 mM sodium pyruvate, 2 mM glutamine, 1×MEM non essential amino acids, 1× penicillin/streptomycin and 10% horse serum. Typically, 2×10^5 to 4×10^5 cells were seeded in medium without antibiotics, in 5 cm diameter Petri dishes 24 hours before the transfection of different Dbait molecules (4.5 μg) with lipofectamine 2000 (LifeTechnologies) as transfection agent (in a 1:3 ratio), according to the manufacturer's instructions. At the end of the transfection the cells were either irradiated (4 Gy) or treated with mitotic inhibitors: nocodazole (200 nM), navelbine (100 nM) or taxol (200 nM).
About 16 hour later the drug was removed and the cells were allowed to recover. Cell irradiation was performed with γ-rays from a ^137Cs source. After a 24 hours recovery, the cells were collected and used either for FACS, western blot analyses or to determine the clonogenicity (survival) and the effect of each treatment.
The effect of radiosensitization and chemosensitization of Dbait molecules in GMA32 cells was evaluated by clonogenicity (clonal survival) assay. For the clonogenicity assay, serial dilutions were made after counting the cells to seed 5 cm Petri dishes with different amounts of cells. The number of cells range from 100-200 (control cells) to 3000 (transfected or/and treated cells). Ten days after, the cells (forming clone) were fixed with 4% paraformaldehyde (20 minutes), then colored with methylene blue (15 minutes), and the number of clone in each plate (in triplicates) was scored.
These drugs are known as potent inhibitors of either polymerization or depolymerization of microtubules. Dbait32 (SEQ ID NO: 1) and Dait32H (SEQ ID NO: 1) were able to enhance to cytotoxic activity of these mitotic inhibitors.

[1] = test system: U87 xenografted human glioblastoma; test: Radiosensitization of xenografted human glioblastoma (U87) on nude mice; assay type: in vivo; conditions: for Number of mice where Tumor volume <4 cm^3 At the day 25 (6 mice per group): 1 nmole/intratumoral injection, total 30 Gy
Description: Radio-sensitization was also observed in mice xenografted with human glioblastoma tumors. The glioblastoma is the highest grade of brain-tumor, and is characterized by its extraordinary aggressive progression with fast fatal outcome and resistance to radio- and chemotherapies. 2-3 millions of U87 cells derived from human glioblastoma was first injected subcutaneously in nude mouse. The grafted tumor was then took out and used to seed subsequently other nude mice by subcutaneous transplant of about 8 mm^3 glioblastoma tumor.
50% mice in the arm which received Dbait32H (SEQ ID NO: 1) (1 nmole) by intratumoral injection and irradiation (1×15 Gy/week or 3×5 Gy/week, followed by one week rest, then second treatment cycle, the total dose of ionizing radiation was 30 Gy) had tumor volume<4 cm^3 at the day 25 after the start of treatment, whereas 100% mice in the control arms (untreated or irradiated and injected with saline solution (PBS) had tumor volume well exceeded 4 cm^3, and were killed before the end of the assay according to current regulation on animal ethics before the end of the treatment.
Table 3.1: Assay of radiosensitization of xenografted human glioblastoma on nude mice by Dbait32H (SEQ ID NO: 1) (1 nmole/intratumoral injection) previously named DRIL32-PEG. Two protocols of irradiation (5 hours after intratumoral injection) were used: 1×15 Gy/week, or 3×5 Gy/week, followed by one week rest, the second treatment cycle. The total irradiation dose was 30 Gy. Control groups were the untreated or the groups received saline solution (PBS) injection.

With “Dbait32H: hairpin double strand DNA with a stem of 32-bp, hexaethyleneglycol linker, phosphorothioate at the free blunt end (DNA ACGCACGGGTGTTGGGTCGTTTGTTCGGATCT; DNA, backbone not given here; hairpin, hexaethyleneglycol loop, 3-bp phosphorothioate at free blunt end)” the clonogenic survival (Hela cells) was “significantly reduced clonogenic survival”, the “chemosensitization (clonal survival)” value (GMA32 cells; GMA32, 200 nM nocodazole, 100 nM navelbine (vinorelbine) or 200 nM taxol (paclitaxel)) was “chemosensitization was also observed” and the “radiosensitization (clonal survival)” value (GMA32 cells; GMA32, 4 Gy irradiation) was “radiosensitization to 4 Gy irradiation was observed”. For the same substance, the “mice with tumor volume<4 cm^3 at the day 25” value ([1]; 1 nmole intratumoral and irradiation (1×15 Gy/week or 3×5 Gy/week)) was 50%, the “Number of mice where Tumor volume <4 cm^3 At the day 25 (6 mice per group)” value ([1]; 1 × 15 Gy/week) was 3/6 and the “Number of mice where Tumor volume <4 cm^3 At the day 25 (6 mice per group)” value ([1]; 3 × 5 Gy/week) was 3/6.
